Test results from the supplement of paper PMC10307832.

Tests used:
Assay in all cases: relative viability (nuclei count vs DMSO), 5 days (fraction); higher = more cells survive
SW 1573 = tested on: SW 1573
How it was run: (§1)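 Lung cancer cell lines, seeded in 1536-well plates, were treated the following day by pin tool with a single drug or with five library-drug doses (not always all listed) in √10 steps on top of a fixed anchor-drug dose. Cells were fixed and nuclei stained in one step after 5 days, and nuclei were counted. Relative viability is the nuclei count for treated wells divided by that for vehicle wells, reported as medians of duplicate plates.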

LK-2 = tested on: LK-2
How it was run: as §1

NCI-H23 = tested on: NCI-H23
How it was run: as §1

NCI-H2085 = tested on: NCI-H2085
How it was run: as §1

SW 900 = tested on: SW 900
How it was run: as §1

HCC-78 = tested on: HCC-78
How it was run: as §1

LXF-289 = tested on: LXF-289
How it was run: as §1

NCI-H2126 = tested on: NCI-H2126
How it was run: as §1

EMC-BAC-2 = tested on: EMC-BAC-2
How it was run: as §1

RERF-LC-KJ = tested on: RERF-LC-KJ
How it was run: as §1

NCI-H3122 = tested on: NCI-H3122
How it was run: as §1

LOU-NH91 = tested on: LOU-NH91
How it was run: as §1

SK-LU-1 = tested on: SK-LU-1
How it was run: as §1

LCLC-103H = tested on: LCLC-103H
How it was run: as §1

EPLC-272H = tested on: EPLC-272H
How it was run: as §1

NCI-H2405 = tested on: NCI-H2405
How it was run: as §1

NCI-H322M = tested on: NCI-H322M
How it was run: as §1

HCC-827 = tested on: HCC-827
How it was run: as §1

NCI-H1563 = tested on: NCI-H1563
How it was run: as §1

NCI-H1975 = tested on: NCI-H1975
How it was run: as §1

ChaGo-K-1 = tested on: ChaGo-K-1
How it was run: as §1

LU99A = tested on: LU99A
How it was run: as §1

NCI-H1666 = tested on: NCI-H1666
How it was run: as §1

## CC1(C)CCC(c2ccc(Cl)cc2)=C(CN2CCN(c3ccc(C(=O)NS(=O)(=O)c4ccc(N[C@H](CCN5CCOCC5)CSc5ccccc5)c(S(=O)(=O)C(F)(F)F)c4)cc3)CC2)C1 [Navitoclax] + N=C(N)NC(=N)NCCc1ccccc1 [Phenformin] (partner 250 µM)
SW 1573; first compound 0.005 µM
  relative viability: 0.437
SW 1573; first compound 0.01581 µM
  relative viability: 0.503
SW 1573; first compound 0.05 µM
  relative viability: 0.358
SW 1573; first compound 0.1581 µM
  relative viability: 0.414
SW 1573; first compound 0.5 µM
  relative viability: 0.406
LK-2; first compound 0.005 µM
  relative viability: 0.417
LK-2; first compound 0.01581 µM
  relative viability: 0.551
LK-2; first compound 0.05 µM
  relative viability: 0.379
LK-2; first compound 0.1581 µM
  relative viability: 0.353
LK-2; first compound 0.5 µM
  relative viability: 0.395
NCI-H23; first compound 0.005 µM
  relative viability: 0.759
NCI-H23; first compound 0.01581 µM
  relative viability: 0.818
NCI-H23; first compound 0.05 µM
  relative viability: 0.662
NCI-H23; first compound 0.1581 µM
  relative viability: 0.783
NCI-H23; first compound 0.5 µM
  relative viability: 0.799
NCI-H2085; first compound 0.005 µM
  relative viability: 0.732
NCI-H2085; first compound 0.01581 µM
  relative viability: 0.847
NCI-H2085; first compound 0.05 µM
  relative viability: 0.593
NCI-H2085; first compound 0.1581 µM
  relative viability: 0.746
NCI-H2085; first compound 0.5 µM
  relative viability: 0.786
SW 900; first compound 0.005 µM
  relative viability: 0.484
SW 900; first compound 0.01581 µM
  relative viability: 0.638
SW 900; first compound 0.05 µM
  relative viability: 0.586
SW 900; first compound 0.1581 µM
  relative viability: 0.556
SW 900; first compound 0.5 µM
  relative viability: 0.41
HCC-78; first compound 0.005 µM
  relative viability: 0.727
HCC-78; first compound 0.01581 µM
  relative viability: 0.692
HCC-78; first compound 0.1581 µM
  relative viability: 0.645
HCC-78; first compound 0.5 µM
  relative viability: 0.75
LXF-289; first compound 0.005 µM
  relative viability: 0.524
LXF-289; first compound 0.01581 µM
  relative viability: 0.531
LXF-289; first compound 0.05 µM
  relative viability: 0.498
LXF-289; first compound 0.1581 µM
  relative viability: 0.506
LXF-289; first compound 0.5 µM
  relative viability: 0.5
NCI-H2126; first compound 0.005 µM
  relative viability: 0.527
NCI-H2126; first compound 0.01581 µM
  relative viability: 0.53
NCI-H2126; first compound 0.05 µM
  relative viability: 0.45
NCI-H2126; first compound 0.1581 µM
  relative viability: 0.42
NCI-H2126; first compound 0.5 µM
  relative viability: 0.444
EMC-BAC-2; first compound 0.005 µM
  relative viability: 0.496
EMC-BAC-2; first compound 0.01581 µM
  relative viability: 0.604
EMC-BAC-2; first compound 0.05 µM
  relative viability: 0.523
EMC-BAC-2; first compound 0.1581 µM
  relative viability: 0.498
EMC-BAC-2; first compound 0.5 µM
  relative viability: 0.489
RERF-LC-KJ; first compound 0.005 µM
  relative viability: 0.41
RERF-LC-KJ; first compound 0.01581 µM
  relative viability: 0.353
RERF-LC-KJ; first compound 0.05 µM
  relative viability: 0.428
RERF-LC-KJ; first compound 0.1581 µM
  relative viability: 0.381
RERF-LC-KJ; first compound 0.5 µM
  relative viability: 0.437
NCI-H3122; first compound 0.005 µM
  relative viability: 0.402
NCI-H3122; first compound 0.01581 µM
  relative viability: 0.423
NCI-H3122; first compound 0.05 µM
  relative viability: 0.306
NCI-H3122; first compound 0.1581 µM
  relative viability: 0.348
NCI-H3122; first compound 0.5 µM
  relative viability: 0.391
LOU-NH91; first compound 0.005 µM
  relative viability: 0.8
LOU-NH91; first compound 0.01581 µM
  relative viability: 0.693
LOU-NH91; first compound 0.05 µM
  relative viability: 0.636
LOU-NH91; first compound 0.1581 µM
  relative viability: 0.652
LOU-NH91; first compound 0.5 µM
  relative viability: 0.427
SK-LU-1; first compound 0.005 µM
  relative viability: 0.552
SK-LU-1; first compound 0.01581 µM
  relative viability: 0.608
SK-LU-1; first compound 0.05 µM
  relative viability: 0.501
SK-LU-1; first compound 0.1581 µM
  relative viability: 0.463
SK-LU-1; first compound 0.5 µM
  relative viability: 0.513
LCLC-103H; first compound 0.005 µM
  relative viability: 0.342
LCLC-103H; first compound 0.01581 µM
  relative viability: 0.359
LCLC-103H; first compound 0.05 µM
  relative viability: 0.314
LCLC-103H; first compound 0.1581 µM
  relative viability: 0.322
LCLC-103H; first compound 0.5 µM
  relative viability: 0.338
EPLC-272H; first compound 0.005 µM
  relative viability: 0.376
EPLC-272H; first compound 0.05 µM
  relative viability: 0.324
EPLC-272H; first compound 0.1581 µM
  relative viability: 0.329
EPLC-272H; first compound 0.5 µM
  relative viability: 0.253
NCI-H2405; first compound 0.005 µM
  relative viability: 0.413
NCI-H2405; first compound 0.01581 µM
  relative viability: 0.44
NCI-H2405; first compound 0.05 µM
  relative viability: 0.376
NCI-H2405; first compound 0.1581 µM
  relative viability: 0.4
NCI-H2405; first compound 0.5 µM
  relative viability: 0.303
NCI-H322M; first compound 0.005 µM
  relative viability: 0.805
NCI-H322M; first compound 0.01581 µM
  relative viability: 0.923
NCI-H322M; first compound 0.05 µM
  relative viability: 0.776
NCI-H322M; first compound 0.1581 µM
  relative viability: 0.848
NCI-H322M; first compound 0.5 µM
  relative viability: 0.954
HCC-827; first compound 0.005 µM
  relative viability: 0.404
HCC-827; first compound 0.01581 µM
  relative viability: 0.434
HCC-827; first compound 0.05 µM
  relative viability: 0.355
HCC-827; first compound 0.1581 µM
  relative viability: 0.396
HCC-827; first compound 0.5 µM
  relative viability: 0.382
NCI-H1563; first compound 0.005 µM
  relative viability: 0.685
NCI-H1563; first compound 0.01581 µM
  relative viability: 0.723
NCI-H1563; first compound 0.05 µM
  relative viability: 0.611
NCI-H1563; first compound 0.1581 µM
  relative viability: 0.682
NCI-H1563; first compound 0.5 µM
  relative viability: 0.665
NCI-H1975; first compound 0.005 µM
  relative viability: 0.427
NCI-H1975; first compound 0.01581 µM
  relative viability: 0.428
NCI-H1975; first compound 0.05 µM
  relative viability: 0.454
NCI-H1975; first compound 0.1581 µM
  relative viability: 0.414
NCI-H1975; first compound 0.5 µM
  relative viability: 0.42
ChaGo-K-1; first compound 0.005 µM
  relative viability: 0.459
ChaGo-K-1; first compound 0.01581 µM
  relative viability: 0.502
ChaGo-K-1; first compound 0.05 µM
  relative viability: 0.397
ChaGo-K-1; first compound 0.1581 µM
  relative viability: 0.48
ChaGo-K-1; first compound 0.5 µM
  relative viability: 0.501
LU99A; first compound 0.005 µM
  relative viability: 0.878
LU99A; first compound 0.01581 µM
  relative viability: 0.993
LU99A; first compound 0.05 µM
  relative viability: 0.726
LU99A; first compound 0.1581 µM
  relative viability: 0.829
LU99A; first compound 0.5 µM
  relative viability: 0.928
NCI-H1666; first compound 0.005 µM
  relative viability: 0.604
NCI-H1666; first compound 0.01581 µM
  relative viability: 0.573
NCI-H1666; first compound 0.05 µM
  relative viability: 0.511
NCI-H1666; first compound 0.1581 µM
  relative viability: 0.534
NCI-H1666; first compound 0.5 µM
  relative viability: 0.559
